The supplement of paper PMC11061612

How the values were obtained:
Experiment in all cases: Bliss excess, mean over the matrix (fraction); higher = more synergy
[1] = test system: MDA-MB-436 (Breast Carcinoma)
Procedure, shortened: (§1)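 After 24 hours at 37°C and 5% CO2 in 1536-well plates, cells in DMEM/F12 or RPMI plus 10% FBS received two-drug dose matrices for 72 hours. Viability came from CellTiter-Glo 2.0 luminescence and was scaled as inhibition, anchored at 0 by vehicle wells and at 1 by blank wells. Combination Emax is taken as the second-highest inhibition in the matrix, and Bliss excess as the observed combination effect less EA + EB − EA·EB, with EA and EB the single-agent effects.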

[2] = test system: SK-HEP-1 (Hepatocellular Carcinoma)
Procedure, shortened: as §1

[3] = test system: UACC-812 (Breast Carcinoma)
Procedure, shortened: as §1

EW-7 (Ewing's Sarcoma) = test system: EW-7 (Ewing's Sarcoma)
Procedure, shortened: as §1

[4] = test system: JHU-022 (Oral Cavity Carcinoma)
Procedure, shortened: as §1

HCC70 (Breast Carcinoma) = test system: HCC70 (Breast Carcinoma)
Procedure, shortened: as §1

[5] = test system: CGTH-W-1 (Thyroid Gland Carcinoma)
Procedure, shortened: as §1

[6] = test system: NCI-H441 (Lung Adenocarcinoma)
Procedure, shortened: as §1

[7] = test system: A2780 (Ovarian Carcinoma)
Procedure, shortened: as §1

IM-9 (Non-Cancerous) = test system: IM-9 (Non-Cancerous)
Procedure, shortened: as §1

[8] = test system: SW620 (Colorectal Carcinoma)
Procedure, shortened: as §1

[9] = test system: KYSE-220 (Esophageal Squamous Cell Carcinoma)
Procedure, shortened: as §1

[10] = test system: NCI-H1651 (Lung Adenocarcinoma)
Procedure, shortened: as §1

[11] = test system: JHH-2 (Hepatocellular Carcinoma)
Procedure, shortened: as §1

WM1552C (Melanoma) = test system: WM1552C (Melanoma)
Procedure, shortened: as §1

EB2 (Burkitt's Lymphoma) = test system: EB2 (Burkitt's Lymphoma)
Procedure, shortened: as §1

[12] = test system: LU-165 (Small Cell Lung Carcinoma)
Procedure, shortened: as §1

PEO1 (Ovarian Carcinoma) = test system: PEO1 (Ovarian Carcinoma)
Procedure, shortened: as §1

[13] = test system: HCC1395 (Breast Carcinoma)
Procedure, shortened: as §1

[14] = test system: NCI-H2087 (Lung Adenocarcinoma)
Procedure, shortened: as §1

Row | Structure (SMILES) | Bliss excess [1] | Bliss excess [2] | Bliss excess [3] | Bliss excess (EW-7 (Ewing's Sarcoma)) | Bliss excess [4] | Bliss excess (HCC70 (Breast Carcinoma)) | Bliss excess [5] | Bliss excess [6] | Bliss excess [7] | Bliss excess (IM-9 (Non-Cancerous)) | Bliss excess [8] | Bliss excess [9] | Bliss excess [10] | Bliss excess [11] | Bliss excess (WM1552C (Melanoma)) | Bliss excess (EB2 (Burkitt's Lymphoma)) | Bliss excess [12] | Bliss excess (PEO1 (Ovarian Carcinoma)) | Bliss excess [13] | Bliss excess [14]
1 | CN(CCO)CC[C@H](CSc1ccccc1)Nc1ccc(S(=O)(=O)NC(=O)c2ccc(N3CCC([C@@H](O)c4ccccc4-c4ccc(Cl)cc4)CC3)cc2)cc1S(=O)(=O)C(F)(F)F [AZD4320] + C1CN(CCC1(C(=O)N[C@@H](CCO)C2=CC=C(C=C2)Cl)N)C3=NC=NC4=C3C=CN4 [Capivasertib] (first compound max 1 µM, 7x7, partner max 3 µM) | -0.0329 | -0.0545 | -0.0135 | 0.0586 | -0.0491 | 0.0327 | -0.0436 | -0.0503 | -0.0734 | -0.0399 | -0.0498 | -0.0056 | -0.0005 | -0.0031 | -0.0419 | 0.0549 | -0.042 | -0.0691 | -0.0479 | -0.0696
2 | CN(CCO)CC[C@H](CSc1ccccc1)Nc1ccc(S(=O)(=O)NC(=O)c2ccc(N3CCC([C@@H](O)c4ccccc4-c4ccc(Cl)cc4)CC3)cc2)cc1S(=O)(=O)C(F)(F)F [AZD4320] + C=CCn1c(=O)c2cnc(Nc3ccc(N4CCN(C)CC4)cc3)nc2n1-c1cccc(C(C)(C)O)n1 [AZD1775] (first compound max 1 µM, partner max 1 µM) | -0.0404 | -0.0191 | -0.0281 | 0.14 | 0.032 | 0.006 | -0.035 | 0.0365 | 0.0284 | 0.0638 | 0.021 | -0.047 | 0.0154 | -0.0067 | 0.0085 | 0.0346 | 0.0775 | 0.0352 | -0.0345 | 0.0088
3 | CN(CCO)CC[C@H](CSc1ccccc1)Nc1ccc(S(=O)(=O)NC(=O)c2ccc(N3CCC([C@@H](O)c4ccccc4-c4ccc(Cl)cc4)CC3)cc2)cc1S(=O)(=O)C(F)(F)F [AZD4320] + CC(=O)O[C@H]1C(=O)[C@@]2(C)[C@H]([C@H](OC(=O)c3ccccc3)[C@]3(O)C[C@H](OC(=O)[C@H](O)[C@@H](NC(=O)c4ccccc4)c4ccccc4)C(C)=C1C3(C)C)[C@]1(OC(C)=O)CO[C@@H]1C[C@@H]2O [Paclitaxel] (first compound max 1 µM, 7x7, partner max 3 µM) | 0.0892 | 0.0236 | 0.0887 | 0.132 | 0.155 | 0.0533 | 0.277 | 0.0861 | -0.0362 | 0.0239 | 0.11 | 0.0169 | -0.0099 | -0.0037 | -0.0076 | -0.0306 | 0.137 | -0.0057 | 0.174 | 0.13
4 | CN(CCO)CC[C@H](CSc1ccccc1)Nc1ccc(S(=O)(=O)NC(=O)c2ccc(N3CCC([C@@H](O)c4ccccc4-c4ccc(Cl)cc4)CC3)cc2)cc1S(=O)(=O)C(F)(F)F [AZD4320] + CCN(CCO)CCCOc1ccc2c(Nc3cc(CC(=O)Nc4cccc(F)c4)[nH]n3)ncnc2c1 [AZD2811] (first compound max 1 µM, 7x7, partner max 1 µM) | -0.0619 | 0.0932 | -0.0194 | 0.126 | -0.0183 | 0.0345 |  | -0.0407 | -0.0048 | -0.0509 | 0.0931 | 0.0129 | -0.0013 | -0.0489 | -0.0152 | 0.0254 | -0.0081 | -0.0249 | 0.0121 | 0.0018
5 | CN(CCO)CC[C@H](CSc1ccccc1)Nc1ccc(S(=O)(=O)NC(=O)c2ccc(N3CCC([C@@H](O)c4ccccc4-c4ccc(Cl)cc4)CC3)cc2)cc1S(=O)(=O)C(F)(F)F [AZD4320] + C[C@@H]1COCCN1C2=NC(=NC(=C2)C3(CC3)[S@](=N)(=O)C)C4=C5C=CNC5=NC=C4 [AZD6738] (first compound max 1 µM, 7x7, partner max 10 µM) | -0.0121 | -0.0723 | -0.0348 | 0.0835 | -0.0035 | -0.0318 | -0.0342 | -0.048 | -0.0402 | 0.0007 | -0.0151 | -0.0076 | 0.0261 | -0.0186 | -0.0969 | 0.0248 | -0.0344 | 0.0134 | 0.0007 | 0.0149
6 | CN(CCO)CC[C@H](CSc1ccccc1)Nc1ccc(S(=O)(=O)NC(=O)c2ccc(N3CCC([C@@H](O)c4ccccc4-c4ccc(Cl)cc4)CC3)cc2)cc1S(=O)(=O)C(F)(F)F [AZD4320] + C[C@@H](Nc1cc(F)cc(F)c1)c1cc(C(=O)N(C)C)cc2c(=O)cc(N3CCOCC3)oc12 [AZD8186] (first compound max 1 µM, 7x7, partner max 3 µM) | 0.0429 | 0.0099 | 0.0063 | -0.014 | -0.0104 | 0.0803 | 0.0304 | -0.0528 | 0.0202 | 0.0079 | -0.0141 | -0.0227 | -0.0074 | -0.0485 | 0.0104 | -0.0196 | -0.0236 | -0.0468 | 0.0463 | -0.0271
7 | CN(CCO)CC[C@H](CSc1ccccc1)Nc1ccc(S(=O)(=O)NC(=O)c2ccc(N3CCC([C@@H](O)c4ccccc4-c4ccc(Cl)cc4)CC3)cc2)cc1S(=O)(=O)C(F)(F)F [AZD4320] + Cc1cc2ncnn2cc1Nc1ncc2c(n1)n(C1CCOCC1)c(=O)n2C [AZD7648] (first compound max 1 µM, 7x7, partner max 10 µM) | -0.0488 | -0.051 | -0.0342 | 0.0633 | -0.0477 | -0.01 | -0.0436 | -0.043 | -0.0469 | 0.0473 | -0.0309 | -0.0165 | -0.0454 | -0.02 | -0.0505 | 0.007 | 0.0018 | -0.0389 | -0.037 | -0.0145
8 | COc1nnc2ccc(N3CCC(c4ccc(OCCN5CCN(C)C(=O)[C@H]5C)cc4)CC3)nn12 [AZD5153] + CN(CC[C@H](CSC1=CC=CC=C1)NC2=C(C=C(C=C2)S(=O)(=O)NC(=O)C3=CC=C(C=C3)N4CCC(CC4)[C@H](C5=CC=CC=C5C6=CC=C(C=C6)Cl)O)S(=O)(=O)C(F)(F)F)CCO [AZD4320] (first compound max 1 µM, 7x7, partner max 1 µM) |  |  |  |  |  |  |  |  |  |  | 0.036 |  |  |  |  |  |  |  |  | 
9 | Cc1nc(Nc2ncc(C(=O)Nc3c(C)cccc3Cl)s2)cc(N2CCN(CCO)CC2)n1 [Dasatinib] + CC(=O)Nc1cccc(-n2c(=O)n(C3CC3)c(=O)c3c(Nc4ccc(I)cc4F)n(C)c(=O)c(C)c32)c1 [Trametinib] (first compound max 2 µM, 7x7, partner max 1 µM) | -0.044 | -0.0294 |  | -0.0074 | -0.0483 | -0.0217 | -0.0129 | 0.024 | 0.029 | -0.0439 | -0.0107 | -0.0522 | -0.042 | -0.076 | 0.0003 | 0.0027 | -0.04 | -0.0433 | -0.0332 | -0.0024
10 | CC(=O)c1c(C)c2cnc(Nc3ccc(N4CCNCC4)cn3)nc2n(C2CCCC2)c1=O [Palbociclib] + CN(CC[C@H](CSC1=CC=CC=C1)NC2=C(C=C(C=C2)S(=O)(=O)NC(=O)C3=CC=C(C=C3)N4CCC(CC4)[C@H](C5=CC=CC=C5C6=CC=C(C=C6)Cl)O)S(=O)(=O)C(F)(F)F)CCO [AZD4320] (first compound max 10 µM, 7x7, partner max 1 µM) |  |  |  |  |  |  |  |  |  |  | -0.0622 |  |  |  |  |  |  |  |  | 
11 | N#Cc1cnc(Nc2cc(NC[C@H]3CNCCO3)c(C(F)(F)F)cn2)cn1 [SRA737] + Nc1ccn([C@@H]2O[C@H](CO)[C@@H](O)C2(F)F)c(=O)n1 [Gemcitabine] (first compound max 10 µM, 7x7, partner max 0.3 µM) | -0.0067 | -0.0002 | -0.054 | 0.0349 | 0.008 |  | 0.0472 | -0.0336 | 0.0099 | 0.0254 | 0.058 | -0.0155 | 0.0124 | -0.0087 | -0.0206 | -0.025 | -0.0375 | 0.113 | 0.0226 | 0.0059
12 | C[C@@H](c1ccc2nccn2c1)n1nnc2ncc(-c3cnn(C)c3)nc21 [Savolitinib] + CN(CC[C@H](CSC1=CC=CC=C1)NC2=C(C=C(C=C2)S(=O)(=O)NC(=O)C3=CC=C(C=C3)N4CCC(CC4)[C@H](C5=CC=CC=C5C6=CC=C(C=C6)Cl)O)S(=O)(=O)C(F)(F)F)CCO [AZD4320] (first compound max 1 µM, 7x7, partner max 1 µM) |  |  |  |  |  |  |  |  |  |  | -0.0642 |  |  |  |  |  |  |  |  | 
